Data reported in the supplement of paper PMC11451515.

Assays:
Conditions in all cases: 48 h
NOMO1 [1] = assay: cell viability relative to DMSO control; higher = less cytotoxic
Outline: (§1)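 Viability was expressed as a per-plate percentage of DMSO wells, with cell-free wells as background. Leukemia cells (NOMO1 or SEM at 500 cells/well, P12-Ichikawa at 1000 cells/well) were adapted for at least four passages in each medium and seeded in 1536-well plates (5 μl). Library compounds in DMSO were pin-dosed over an 11-point threefold series from 47 μM to 0.79 nM, and CellTiter-Glo One luminescence was read after 48 h at 37°C.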

P12-Ichikawa [2] = assay: as above
Outline: as §1

SEM cells [3] = assay: as above
Outline: as §1

NOMO1 [4] = assay: AUC of viability dose-response curve (% viability x log10 dose units); higher = less sensitive
Outline: (§2)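 Leukemia cells adapted to each medium were seeded in 1536-well plates (500 or 1000 cells/well) and given library compounds in DMSO for 48 h at 37°C. The 11 threefold doses spanned 47 μM to 0.79 nM, and CellTiter-Glo One luminescence was normalised per plate to DMSO and cell-free wells before four-parameter log-logistic fitting on log10 dose. Area under the curve was integrated with the trapezoidal rule, scaling curves above full viability and removing curves that failed quality control.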

P12-Ichikawa [5] = assay: as above
Outline: as §2

SEM cells [6] = assay: as above
Outline: as §2

CNC1CCC(N(Cc2cccc(-c3ccncc3)c2)C(=O)c2sc3c(F)ccc(F)c3c2Cl)CC1 (stereo not given)
cell viability [%]
Conditions | NOMO1 [1] | P12-Ichikawa [2] | SEM cells [3]
HPLM + 10% dialyzed FBS, 0.000781 µM | 92.9 | 87.6 | 80.2
HPLM + 10% dialyzed FBS, 0.00234 µM | 111 | 101 | 102
HPLM + 10% dialyzed FBS, 0.00702 µM | 121 | 106 | 106
HPLM + 10% dialyzed FBS, 0.0211 µM | 123 | 105 | 117
HPLM + 10% dialyzed FBS, 0.0632 µM | 127 | 107 | 103
HPLM + 10% dialyzed FBS, 0.19 µM | 106 | 109 | 101
HPLM + 10% dialyzed FBS, 0.569 µM | 111 | 104 | 102
HPLM + 10% dialyzed FBS, 1.71 µM | 113 | 114 | 113
HPLM + 10% dialyzed FBS, 5.12 µM | 100 | 101 | 93.3
HPLM + 10% dialyzed FBS, 15.4 µM | 97.8 | 99.3 | 85.3
HPLM + 10% dialyzed FBS, 46.1 µM | 36.5 | 71.4 | 53.2
RPMI 5 mM glucose + 10% FBS, 0.000781 µM | 95.3 | 92.9 | 97.5
RPMI 5 mM glucose + 10% FBS, 0.00234 µM | 108 | 109 | 101
RPMI 5 mM glucose + 10% FBS, 0.00702 µM | 100 | 98.2 | 120
RPMI 5 mM glucose + 10% FBS, 0.0211 µM | 106 | 104 | 105
RPMI 5 mM glucose + 10% FBS, 0.0632 µM | 118 | 110 | 109
RPMI 5 mM glucose + 10% FBS, 0.19 µM | 105 | 105 | 95.9
RPMI 5 mM glucose + 10% FBS, 0.569 µM | 117 | 108 | 98
RPMI 5 mM glucose + 10% FBS, 1.71 µM | 105 | 100 | 110
RPMI 5 mM glucose + 10% FBS, 5.12 µM | 99 | 106 | 99.9
RPMI 5 mM glucose + 10% FBS, 15.4 µM | 104 | 94.9 | 92.3
RPMI 5 mM glucose + 10% FBS, 46.1 µM | 81 | 72.8 | 73.3
RPMI 5 mM glucose + 10% dialyzed FBS, 0.000781 µM | 87 | 92.8 | 93.7
RPMI 5 mM glucose + 10% dialyzed FBS, 0.00234 µM | 99.2 | 102 | 99.3
RPMI 5 mM glucose + 10% dialyzed FBS, 0.00702 µM | 104 | 105 | 113
RPMI 5 mM glucose + 10% dialyzed FBS, 0.0211 µM | 115 | 105 | 107
RPMI 5 mM glucose + 10% dialyzed FBS, 0.0632 µM | 112 | 97.5 | 104
RPMI 5 mM glucose + 10% dialyzed FBS, 0.19 µM | 99.7 | 105 | 74.7
RPMI 5 mM glucose + 10% dialyzed FBS, 0.569 µM | 110 | 106 | 101
RPMI 5 mM glucose + 10% dialyzed FBS, 1.71 µM | 100 | 94.3 | 91.9
RPMI 5 mM glucose + 10% dialyzed FBS, 5.12 µM | 100 | 103 | 90.3
RPMI 5 mM glucose + 10% dialyzed FBS, 15.4 µM | 108 | 93.6 | 85.9
RPMI 5 mM glucose + 10% dialyzed FBS, 46.1 µM | 57.4 | 55.3 | 69.2

AUC of viability dose-response curve
Conditions | NOMO1 [4] | P12-Ichikawa [5] | SEM cells [6]
HPLM + 10% dialyzed FBS | 453 | 467 | 455
RPMI 5 mM glucose + 10% FBS | 470 | 466 | 464
RPMI 5 mM glucose + 10% dialyzed FBS | 466 | 463 | 445

NC/1=N/C2=C([NH]C=N2)C(=S)N1
cell viability [%]
Conditions | NOMO1 [1] | P12-Ichikawa [2] | SEM cells [3]
HPLM + 10% dialyzed FBS, 0.000781 µM | 107 | 113 | 110
HPLM + 10% dialyzed FBS, 0.00234 µM | 121 | 122 | 57
HPLM + 10% dialyzed FBS, 0.00702 µM | 121 | 116 | 106
HPLM + 10% dialyzed FBS, 0.0211 µM | 133 | 123 | 115
HPLM + 10% dialyzed FBS, 0.0632 µM | 131 | 123 | 117
HPLM + 10% dialyzed FBS, 0.19 µM | 115 | 121 | 114
HPLM + 10% dialyzed FBS, 0.569 µM | 122 | 120 | 108
HPLM + 10% dialyzed FBS, 1.71 µM | 137 | 119 | 117
HPLM + 10% dialyzed FBS, 5.12 µM | 126 | 98.2 | 113
HPLM + 10% dialyzed FBS, 15.4 µM | 145 | 94.2 | 110
HPLM + 10% dialyzed FBS, 46.1 µM | 35.1 | 28.9 | 24.2
RPMI 5 mM glucose + 10% FBS, 0.000781 µM | 111 | 119 | 114
RPMI 5 mM glucose + 10% FBS, 0.00234 µM | 119 | 120 | 81.5
RPMI 5 mM glucose + 10% FBS, 0.00702 µM | 123 | 124 | 117
RPMI 5 mM glucose + 10% FBS, 0.0211 µM | 119 | 116 | 105
RPMI 5 mM glucose + 10% FBS, 0.0632 µM | 113 | 131 | 119
RPMI 5 mM glucose + 10% FBS, 0.19 µM | 115 | 130 | 114
RPMI 5 mM glucose + 10% FBS, 0.569 µM | 117 | 116 | 102
RPMI 5 mM glucose + 10% FBS, 1.71 µM | 120 | 119 | 103
RPMI 5 mM glucose + 10% FBS, 5.12 µM | 109 | 96 | 102
RPMI 5 mM glucose + 10% FBS, 15.4 µM | 101 | 88.1 | 108
RPMI 5 mM glucose + 10% FBS, 46.1 µM | 27.6 | 21.2 | 16.1
RPMI 5 mM glucose + 10% dialyzed FBS, 0.000781 µM | – | 105 | 95.1
RPMI 5 mM glucose + 10% dialyzed FBS, 0.00234 µM | – | 117 | 81.6
RPMI 5 mM glucose + 10% dialyzed FBS, 0.00702 µM | – | 124 | 103
RPMI 5 mM glucose + 10% dialyzed FBS, 0.0211 µM | – | 122 | 118
RPMI 5 mM glucose + 10% dialyzed FBS, 0.0632 µM | – | 125 | 113
RPMI 5 mM glucose + 10% dialyzed FBS, 0.19 µM | – | 112 | 103
RPMI 5 mM glucose + 10% dialyzed FBS, 0.569 µM | – | 118 | 81
RPMI 5 mM glucose + 10% dialyzed FBS, 1.71 µM | – | 110 | 37.7
RPMI 5 mM glucose + 10% dialyzed FBS, 5.12 µM | – | 79 | 29.6
RPMI 5 mM glucose + 10% dialyzed FBS, 15.4 µM | – | 59.7 | 33.5
RPMI 5 mM glucose + 10% dialyzed FBS, 46.1 µM | – | 11.1 | 9.21

AUC of viability dose-response curve
Conditions | NOMO1 [4] | P12-Ichikawa [5] | SEM cells [6]
HPLM + 10% dialyzed FBS | 457 | 441 | 458
RPMI 5 mM glucose + 10% FBS | 451 | 433 | 457
RPMI 5 mM glucose + 10% dialyzed FBS | 402 | 409 | 345
